Measurements published in patent publication US9067898B1, “Isothiazole derivatives as GPR120 agonists for the treatment of type II diabetes” (Janssen Pharmaceutica NV, priority 2014, dated 2015).

Columns and labels:
[1] = target: T1, long form of human GPR120 (Homo sapiens, UniProt Q5NUL3); assay: Human GPR120 DiscoveRx PathHunter Beta-Arrestin assay, Procedure β-arrestin A; format: cell-based; details: PathHunter CHO-K1 GPR120 β-Arrestin cell line, 3000 cells per well, read-out: hGPR120 β-arrestin A EC50
T1 construct: host or cells: PathHunter CHO-K1 GPR120 β-Arrestin Cell Line
T1 sequence (Q5NUL3 1-377 isoform Q5NUL3-1): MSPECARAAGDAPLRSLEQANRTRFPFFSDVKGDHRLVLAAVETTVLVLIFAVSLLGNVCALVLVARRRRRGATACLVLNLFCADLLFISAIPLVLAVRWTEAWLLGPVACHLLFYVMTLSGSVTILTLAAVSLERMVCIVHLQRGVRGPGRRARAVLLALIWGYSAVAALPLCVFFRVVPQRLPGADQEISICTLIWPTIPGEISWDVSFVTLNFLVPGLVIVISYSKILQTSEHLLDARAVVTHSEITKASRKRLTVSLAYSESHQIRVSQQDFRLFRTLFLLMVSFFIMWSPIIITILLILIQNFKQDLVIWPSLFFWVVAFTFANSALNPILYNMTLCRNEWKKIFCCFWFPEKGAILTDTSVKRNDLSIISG
T1 sequence (P32121 whole entry partner): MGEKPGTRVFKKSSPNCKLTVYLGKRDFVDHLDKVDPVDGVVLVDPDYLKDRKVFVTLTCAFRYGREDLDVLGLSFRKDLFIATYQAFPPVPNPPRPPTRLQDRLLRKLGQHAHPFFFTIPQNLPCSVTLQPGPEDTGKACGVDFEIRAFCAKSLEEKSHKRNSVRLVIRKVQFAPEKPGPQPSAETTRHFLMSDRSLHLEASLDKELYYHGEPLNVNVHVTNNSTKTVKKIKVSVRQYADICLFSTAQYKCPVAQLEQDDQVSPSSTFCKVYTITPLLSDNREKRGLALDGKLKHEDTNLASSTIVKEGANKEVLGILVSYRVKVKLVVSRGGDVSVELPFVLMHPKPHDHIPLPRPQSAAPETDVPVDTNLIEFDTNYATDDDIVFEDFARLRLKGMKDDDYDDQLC
In short: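 PathHunter CHO-K1 β-arrestin cells expressed long-form GPR120 (Procedure A, 3000 cells/well) or short-form GPR120 (Procedure B, 5000 cells/well). Compounds were serially diluted from 25 µM and incubated 90 min at 37 °C in HBSS/20 mM HEPES/0.1% BSA, pH 7.4. Luminescence was read after 60 min detection at RT; EC50 comes from % activity versus positive control, Hill slope fixed at 1.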

Human GPR120 short form = target: T2, Human GPR120 short form (Homo sapiens, UniProt Q5NUL3); assay: Human GPR120 calcium flux assay (FLIPR), Procedure Calcium A; format: cell-based; details: HEK-293 cells expressing human GPR120 short form, 2500 cells/well; read-out: GPR120 Ca2+ Assay A EC50
T2 construct: expressed in transfected cells
T2 sequence (Q5NUL3 1-361): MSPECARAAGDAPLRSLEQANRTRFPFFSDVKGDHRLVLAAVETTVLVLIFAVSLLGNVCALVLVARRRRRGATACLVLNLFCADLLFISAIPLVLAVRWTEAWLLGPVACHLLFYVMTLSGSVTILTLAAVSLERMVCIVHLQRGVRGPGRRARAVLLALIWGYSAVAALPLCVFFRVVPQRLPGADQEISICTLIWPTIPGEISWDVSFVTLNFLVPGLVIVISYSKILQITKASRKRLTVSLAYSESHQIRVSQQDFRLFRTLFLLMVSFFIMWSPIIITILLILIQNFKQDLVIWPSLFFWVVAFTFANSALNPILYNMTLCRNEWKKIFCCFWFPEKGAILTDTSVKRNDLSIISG
In short: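 HEK293 cells stably expressing the short isoform (NM_001195755.1), 2500/well, starved 1 h, then loaded with Fluo-4 NW plus probenecid (30 min 37 °C, 15 min RT). Compound solutions 0.012–100 μM, 0.2% DMSO final; FLIPR read 300 s after addition. EC50 from Fmax−Fmin fitted to variable-slope sigmoid (Hill <2).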

| EC50 [1] [nM] | EC50 (Human GPR120 short form) [nM] | Structure (SMILES) |
| --- | --- | --- |
| 217 | 86 | CCc1ccc(-c2nsc(C(F)(F)F)c2COc2ccc(CC(C)C(=O)O)cc2F)cc1 (centres unmarked) [Cpd 105, 3-(4-((3-(4-ethylphenyl)-5-(trifluoromethyl)isothiazol-4-yl)methoxy)-3-fluorophenyl)-2-methylpropanoic acid] |
| 105 | 148 | OCCCc1cc(F)c(OCc2c(C3CCCC3)nsc2C(F)(F)F)c(F)c1 [Cpd 141, 3-(4-[[3-cyclopentyl-5-(trifluoromethyl)-1,2-thiazol-4-yl]methoxy]-3,5-difluorophenyl)propan-1-ol] |
| 344 | 181 | CCc1ccc(-c2sccc2COc2c(F)cc(CCC(=O)O)cc2F)cc1 [Cpd 52, 3-(4-((2-(4-ethylphenyl)thiophen-3-yl)methoxy)-3,5-difluorophenyl)propanoic acid] |
| 240 | 167 | CCc1nsc(-c2ccc(C)cc2F)c1COc1c(F)cc(CCC(=O)O)cc1F [Cpd 150, 3-(4-[[3-ethyl-5-(2-fluoro-4-methylphenyl)-1,2-thiazol-4-yl]methoxy]-3,5-difluorophenyl)propanoic acid] |
| 431 | 178 | Cc1c(CCC(=O)O)ccc(OCc2c(Cl)nsc2-c2ccc(F)cc2)c1C [Cpd 154, 3-(4-[[3-chloro-5-(4-fluorophenyl)-1,2-thiazol-4-yl]methoxy]-2,3-dimethylphenyl)propanoic acid] |
| 54 | 56 | CCc1ccc(-c2snc(Cl)c2COc2ccc(CCCO)c(F)c2F)cc1 [Cpd 83, 3-(4-((3-chloro-5-(4-ethylphenyl)isothiazol-4-yl)methoxy)-2,3-difluorophenyl)propan-1-ol] |
| 503 | 46 | O=C(O)CCc1cc(F)c(OCc2c(C3=CCCC3)csc2C(F)(F)F)c(F)c1 [Cpd 31, 3-(4-((4-(cyclopent-1-en-1-yl)-2-(trifluoromethyl)thiophen-3-yl)methoxy)-3,5-difluorophenyl)propanoic acid] |
| 498 | 163 | CCc1ccc(-c2cc(C)sc2COc2ccc(CCC(=O)O)c(C)c2C)cc1 [Cpd 13, 3-(4-((3-(4-ethylphenyl)-5-methylthiophen-2-yl)methoxy)-2,3-dimethylphenyl)propanoic acid] |
| 88 | 62 | O=C(O)CCc1cc(F)c(OCc2c(-c3ccc4c(c3)OCO4)nsc2C(F)(F)F)c(F)c1 [Cpd 87, 3-(4-[[3-(2H-1,3-benzodioxol-5-yl)-5-(trifluoromethyl)-1,2-thiazol-4-yl]methoxy]-3,5-difluorophenyl)propanoic acid] |
| 341 | 453 | O=C(O)/C=C/c1cc(F)c(OCc2c(-c3ccc(Cl)cc3)nsc2C(F)(F)F)c(F)c1 [Cpd 201, (E)-3-(4-((3-(4-chlorophenyl)-5-(trifluoromethyl)isothiazol-4-yl)methoxy)-3,5-difluorophenyl)acrylic acid] |
| 639 | 293 | Cc1c(CCC(=O)O)ccc(OCc2c(-c3ccc(F)cc3)csc2C(F)(F)F)c1C [Cpd 58, 3-(4-((4-(4-fluorophenyl)-2-(trifluoromethyl)thiophen-3-yl)methoxy)-2,3-dimethylphenyl)propanoic acid] |
| 612 | 310 | O=C(O)CCc1ccc(OCc2csnc2-c2ccc(Cl)cc2)c(F)c1F [Cpd 189, 3-(4-((3-(4-chlorophenyl)isothiazol-4-yl)methoxy)-2,3-difluorophenyl)propanoic acid] |
| 108 | 19 | CCc1ccc(-c2snc(Cl)c2COc2ccc(CCC(=O)O)c(F)c2F)cc1 [Cpd 66, 3-(4-[[3-chloro-5-(4-ethylphenyl)-1,2-thiazol-4-yl]methoxy]-2,3-difluorophenyl)propanoic acid] |
| 287 | 73 | O=C(O)CCc1cc(F)c(OCc2c(-c3c(F)cc(Cl)cc3F)nsc2C(F)(F)F)c(F)c1 [Cpd 96, 3-(4-((3-(4-chloro-2,6-difluorophenyl)-5-(trifluoromethyl)isothiazol-4-yl)methoxy)-3,5-difluorophenyl)propanoic acid] |
| 254 | 104 | CCc1ccc(-c2nsc(C(F)(F)F)c2COc2c(F)cc(CCC(=O)O)c(F)c2F)cc1 [Cpd 117, 3-(4-((3-(4-ethylphenyl)-5-(trifluoromethyl)isothiazol-4-yl)methoxy)-2,3,5-trifluorophenyl)propanoic acid] |
| 189 | 76 | Cc1c(CCC(=O)O)ccc(OCc2c(Cl)nsc2-c2ccccc2)c1C [Cpd 101, 3-[4-[(3-chloro-5-phenyl-1,2-thiazol-4-yl)methoxy]-2,3-dimethylphenyl]propanoic acid] |
| 167 | 114 | CCc1ccc(-c2cc(Cl)sc2COc2c(F)cc(CCC(=O)O)cc2F)cc1 [Cpd 8, 3-(4-((5-chloro-3-(4-ethylphenyl)thiophen-2-yl)methoxy)-3,5-difluorophenyl)propanoic acid] |
| 98 | 34 | CCc1ccc(-c2nsc(C(F)(F)F)c2COc2c(F)cc(CCC(=O)O)cc2F)cc1 [Cpd 70, 3-(4-[[3-(4-ethylphenyl)-5-(trifluoromethyl)-1,2-thiazol-4-yl]methoxy]-3,5-difluorophenyl)propanoic acid] |
| 265 | 163 | CCc1ccc(-c2cc(Cl)sc2COc2ccc(CCCO)c(F)c2F)cc1 [Cpd 14, 3-(4-[[5-chloro-3-(4-ethylphenyl)thiophen-2-yl]methoxy]-2,3-difluorophenyl)propan-1-ol] |
| 77 | 138 | CCc1ccc(-c2nsc(C(F)(F)F)c2COc2ccc(CCCO)c(F)c2F)cc1 [Cpd 139, 3-(4-((3-(4-ethylphenyl)-5-(trifluoromethyl)isothiazol-4-yl)methoxy)-2,3-difluorophenyl)propan-1-ol] |
| 325 | 223 | COc1ccc(-c2snc(Cl)c2COc2ccc(CCCO)c(F)c2F)cc1 [Cpd 168, 3-(4-[[3-chloro-5-(4-methoxyphenyl)-1,2-thiazol-4-yl]methoxy]-2,3-difluorophenyl)propan-1-ol] |
| 85 | 57 | COc1ccc(-c2nsc(C(F)(F)F)c2COc2ccc(CCC(=O)O)c(C)c2C)cc1 [Cpd 86, 3-(4-[[3-(4-methoxyphenyl)-5-(trifluoromethyl)-1,2-thiazol-4-yl]methoxy]-2,3-dimethylphenyl) propanoic acid] |
| 261 | 59 | CCc1ccc(-c2ccsc2COc2ccc(CCCO)c(F)c2F)cc1 [Cpd 4, 3-(4-[[3-(4-ethylphenyl)thiophen-2-yl]methoxy]-2,3-difluorophenyl)propan-1-ol] |
| 178 | 122 | CCc1ccc(-c2nsc(C(F)(F)F)c2COc2ccc(CCC(=O)O)c(C)c2C)cc1 [Cpd 127, 3-(4-((3-(4-ethylphenyl)-5-(trifluoromethyl)isothiazol-4-yl)methoxy)-2,3-dimethylphenyl)propanoic acid] |
| 83 | 31 | O=C(O)CCc1ccc(OCc2c(-c3ccc(Cl)cc3)nsc2C(F)(F)F)c(Br)c1 [Cpd 69, 3-(3-bromo-4-[[3-(4-chlorophenyl)-5-(trifluoromethyl)-1,2-thiazol-4-yl]methoxy]phenyl)propanoic acid] |
| 889 | 305 | O=C(O)CCc1ccc(OCc2csnc2-c2ccc(Br)cc2)c(F)c1F [Cpd 187, 3-(4-((3-(4-bromophenyl)isothiazol-4-yl)methoxy)-2,3-difluorophenyl)propanoic acid] |
| 295 | 100 | O=C(O)CCc1cc(F)c(OCc2c(Cl)nsc2-c2ccc(Cl)cc2F)c(F)c1 [Cpd 114, 3-(4-((3-chloro-5-(4-chloro-2-fluorophenyl)isothiazol-4-yl)methoxy)-3,5-difluorophenyl)propanoic acid] |
| 182 | 770 | Cc1c(CCCO)cc(F)c(OCc2c(-c3ccc(Cl)cc3)nsc2C(F)(F)F)c1F [Cpd 223, 3-(4-((3-(4-chlorophenyl)-5-(trifluoromethyl)isothiazol-4-yl)methoxy)-3,5-difluoro-2-methylphenyl)propan-1-ol] |
| 203 | 117 | CCc1ccc(-c2cc(Cl)sc2COc2c(F)cc(CCCO)cc2F)cc1 [Cpd 9, 3-(4-[[5-chloro-3-(4-ethylphenyl)thiophen-2-yl]methoxy]-3,5-difluorophenyl)propan-1-ol] |
| 961 | 1020 | Cc1c(CCC(=O)O)cc(F)c(OCc2csnc2-c2ccc(Cl)cc2)c1F [Cpd 231, 3-(4-((3-(4-chlorophenyl)isothiazol-4-yl)methoxy)-3,5-difluoro-2-methylphenyl)propanoic acid] |

| Structure (SMILES) | EC50 [1] [nM] | EC50 (Human GPR120 short form) [nM] |
| --- | --- | --- |
| Cc1c(CCC(=O)O)ccc(OCc2c(Cl)nsc2-c2ccc(Cl)cc2F)c1C [Cpd 122] | 1290 | 109 |
